Laboratory results reported in PubChem BioAssay (NCI).
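Cultured in 96-well plates, cells were exposed to test compound for 48 hours across five concentrations. TGI is the concentration that stops growth completely.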

What was measured:
Test in all cases: NCI-60 cell line screen, 48 h
ACHN renal = tested on: ACHN renal
SNB-75 CNS = tested on: SNB-75 CNS
NCI-H226 lung = tested on: NCI-H226 lung
EKVX NSCLC = tested on: EKVX NSCLC
MDA-N = tested on: MDA-N
OVCAR-8 ovarian = tested on: OVCAR-8 ovarian
SK-MEL-28 melanoma = tested on: SK-MEL-28 melanoma
HCT-15 colon = tested on: HCT-15 colon
OVCAR-5 ovarian = tested on: OVCAR-5 ovarian
BT-549 breast = tested on: BT-549 breast
SNB-19 CNS = tested on: SNB-19 CNS
HT29 colon = tested on: HT29 colon
SW-620 colon = tested on: SW-620 colon
MDA-MB-231 breast = tested on: MDA-MB-231 breast
T-47D breast = tested on: T-47D breast
DU-145 prostate = tested on: DU-145 prostate
SF-295 CNS = tested on: SF-295 CNS
HCT-116 colon = tested on: HCT-116 colon
MDA-MB-435 = tested on: MDA-MB-435
786-0 renal = tested on: 786-0 renal
LOX IMVI melanoma = tested on: LOX IMVI melanoma
UACC-257 melanoma = tested on: UACC-257 melanoma
CCRF-CEM leukemia = tested on: CCRF-CEM leukemia
SK-MEL-2 melanoma = tested on: SK-MEL-2 melanoma
A549 NSCLC = tested on: A549 NSCLC
A498 renal = tested on: A498 renal
TK-10 renal = tested on: TK-10 renal
CAKI-1 renal = tested on: CAKI-1 renal
COLO 205 colon = tested on: COLO 205 colon
PC-3 prostate = tested on: PC-3 prostate
NCI-H460 lung = tested on: NCI-H460 lung
NCI/ADR-RES ovarian = tested on: NCI/ADR-RES ovarian
OVCAR-4 ovarian = tested on: OVCAR-4 ovarian
NCI-H522 lung = tested on: NCI-H522 lung
UO-31 renal = tested on: UO-31 renal
SN12C renal = tested on: SN12C renal
SF-539 CNS = tested on: SF-539 CNS
NCI-H23 lung = tested on: NCI-H23 lung
HS 578T breast = tested on: HS 578T breast
OVCAR-3 ovarian = tested on: OVCAR-3 ovarian
M14 melanoma = tested on: M14 melanoma
SK-MEL-5 melanoma = tested on: SK-MEL-5 melanoma
MOLT-4 leukemia = tested on: MOLT-4 leukemia
MCF7 breast = tested on: MCF7 breast
HOP-62 NSCLC = tested on: HOP-62 NSCLC
KM12 colon = tested on: KM12 colon
HL-60(TB) leukemia = tested on: HL-60(TB) leukemia
K-562 leukemia = tested on: K-562 leukemia
SR leukemia = tested on: SR leukemia
RPMI-8226 leukemia = tested on: RPMI-8226 leukemia
UACC-62 melanoma = tested on: UACC-62 melanoma
SK-OV-3 ovarian = tested on: SK-OV-3 ovarian
MALME-3M melanoma = tested on: MALME-3M melanoma
HOP-92 NSCLC = tested on: HOP-92 NSCLC
RXF 393 renal = tested on: RXF 393 renal
SF-268 CNS = tested on: SF-268 CNS
IGROV1 ovarian = tested on: IGROV1 ovarian
U251 CNS = tested on: U251 CNS

Q: What does the source list for `CC(C)C(=O)OCN(C)c1nc(N(C)COC(=O)C(C)C)nc(N(C)COC(=O)C(C)C)n1`?
A: TGI (ACHN renal): 99.6 µM; TGI (SNB-75 CNS): 61.9 µM; TGI (NCI-H226 lung): > 100 µM; TGI (EKVX NSCLC): > 100 µM; TGI (MDA-N): 46.2 µM; TGI (OVCAR-8 ovarian): 45.5 µM; TGI (SK-MEL-28 melanoma): 44.5 µM; TGI (HCT-15 colon): 51 µM; TGI (OVCAR-5 ovarian): 95.3 µM; TGI (BT-549 breast): 46.2 µM; TGI (SNB-19 CNS): > 100 µM; TGI (HT29 colon): 66.3 µM; TGI (SW-620 colon): 89.6 µM; TGI (MDA-MB-231 breast): 57.7 µM; TGI (T-47D breast): > 100 µM; TGI (DU-145 prostate): > 100 µM; TGI (SF-295 CNS): 93.2 µM; TGI (HCT-116 colon): > 100 µM; TGI (MDA-MB-435): 32.2 µM; TGI (786-0 renal): 65.2 µM; TGI (LOX IMVI melanoma): 39.1 µM; TGI (UACC-257 melanoma): 38.2 µM; TGI (CCRF-CEM leukemia): 70.5 µM; TGI (SK-MEL-2 melanoma): 49.8 µM; TGI (A549 NSCLC): > 100 µM; TGI (A498 renal): > 100 µM; TGI (TK-10 renal): > 100 µM; TGI (CAKI-1 renal): > 100 µM; TGI (COLO 205 colon): 51.3 µM; TGI (PC-3 prostate): > 100 µM; TGI (NCI-H460 lung): 54.2 µM; TGI (NCI/ADR-RES ovarian): > 100 µM; TGI (OVCAR-4 ovarian): 58.3 µM; TGI (NCI-H522 lung): 36 µM; TGI (UO-31 renal): 52.5 µM; TGI (SN12C renal): > 100 µM; TGI (SF-539 CNS): 53.9 µM; TGI (NCI-H23 lung): 41.2 µM; TGI (HS 578T breast): 49.1 µM; TGI (OVCAR-3 ovarian): > 100 µM; TGI (M14 melanoma): 33 µM; TGI (SK-MEL-5 melanoma): 28.4 µM; TGI (MOLT-4 leukemia): 58.1 µM; TGI (MCF7 breast): > 100 µM; TGI (HOP-62 NSCLC): > 100 µM; TGI (KM12 colon): 43.9 µM; TGI (HL-60(TB) leukemia): 48.9 µM; TGI (K-562 leukemia): > 100 µM; TGI (SR leukemia): 50.5 µM; TGI (RPMI-8226 leukemia): > 100 µM

Q: How did the TGI (ACHN renal) turn out when `COc1cc2c(c(O)c1OC)C(=O)C1CCC(=O)N1C2c1cccc2ccccc12` (stereo unspecified) was run?
A: > 100 µM

Q: What about the TGI (SNB-75 CNS) of the same molecule?
A: > 100 µM

Q: And the TGI (UACC-62 melanoma)?
A: > 100 µM

Q: What about the TGI (NCI-H226 lung) of the same molecule?
A: > 100 µM

Q: What about the TGI (EKVX NSCLC) of the same molecule?
A: > 100 µM

Q: And the TGI (MDA-N)?
A: > 100 µM

Q: What about the TGI (OVCAR-8 ovarian) of the same molecule?
A: > 100 µM

Q: And the TGI (SK-MEL-28 melanoma)?
A: > 100 µM

Q: And the TGI (HCT-15 colon)?
A: > 100 µM

Q: What about the TGI (OVCAR-5 ovarian) of the same molecule?
A: > 100 µM

Q: And the TGI (BT-549 breast)?
A: > 100 µM

Q: What about the TGI (SNB-19 CNS) of the same molecule?
A: > 100 µM

Q: And the TGI (HT29 colon)?
A: > 100 µM

Q: And the TGI (SK-OV-3 ovarian)?
A: > 100 µM

Q: And the TGI (SW-620 colon)?
A: > 100 µM

Q: What about the TGI (MDA-MB-231 breast) of the same molecule?
A: > 100 µM

Q: What about the TGI (T-47D breast) of the same molecule?
A: > 100 µM

Q: And the TGI (DU-145 prostate)?
A: > 100 µM

Q: And the TGI (SF-295 CNS)?
A: > 100 µM

Q: And the TGI (HCT-116 colon)?
A: > 100 µM

Q: And the TGI (MDA-MB-435)?
A: > 100 µM

Q: What about the TGI (786-0 renal) of the same molecule?
A: > 100 µM

Q: What about the TGI (UACC-257 melanoma) of the same molecule?
A: > 100 µM

Q: And the TGI (MALME-3M melanoma)?
A: > 100 µM

Q: And the TGI (CCRF-CEM leukemia)?
A: 77 µM

Q: And the TGI (SK-MEL-2 melanoma)?
A: > 100 µM

Q: And the TGI (A549 NSCLC)?
A: > 100 µM

Q: And the TGI (A498 renal)?
A: > 100 µM

Q: What about the TGI (CAKI-1 renal) of the same molecule?
A: > 100 µM

Q: What about the TGI (COLO 205 colon) of the same molecule?
A: 32.8 µM

Q: And the TGI (PC-3 prostate)?
A: > 100 µM

Q: And the TGI (NCI-H460 lung)?
A: > 100 µM

Q: What about the TGI (HOP-92 NSCLC) of the same molecule?
A: 89.5 µM

Q: What about the TGI (NCI/ADR-RES ovarian) of the same molecule?
A: > 100 µM

Q: What about the TGI (OVCAR-4 ovarian) of the same molecule?
A: > 100 µM

Q: And the TGI (NCI-H522 lung)?
A: > 100 µM

Q: And the TGI (UO-31 renal)?
A: > 100 µM

Q: And the TGI (SN12C renal)?
A: > 100 µM

Q: What about the TGI (SF-539 CNS) of the same molecule?
A: > 100 µM

Q: And the TGI (RXF 393 renal)?
A: > 100 µM

Q: What about the TGI (SF-268 CNS) of the same molecule?
A: > 100 µM

Q: What about the TGI (NCI-H23 lung) of the same molecule?
A: > 100 µM

Q: What about the TGI (HS 578T breast) of the same molecule?
A: > 100 µM

Q: And the TGI (IGROV1 ovarian)?
A: > 100 µM

Q: What about the TGI (OVCAR-3 ovarian) of the same molecule?
A: > 100 µM

Q: And the TGI (M14 melanoma)?
A: > 100 µM

Q: What about the TGI (SK-MEL-5 melanoma) of the same molecule?
A: > 100 µM

Q: And the TGI (MOLT-4 leukemia)?
A: 89.6 µM

Q: And the TGI (MCF7 breast)?
A: > 100 µM

Q: And the TGI (HOP-62 NSCLC)?
A: > 100 µM

Q: And the TGI (KM12 colon)?
A: > 100 µM

Q: What about the TGI (HL-60(TB) leukemia) of the same molecule?
A: 63.9 µM

Q: And the TGI (K-562 leukemia)?
A: 59.2 µM

Q: What about the TGI (U251 CNS) of the same molecule?
A: > 100 µM

Q: And the TGI (SR leukemia)?
A: > 100 µM

Q: What about the TGI (RPMI-8226 leukemia) of the same molecule?
A: 81.2 µM
